Laboratory results as given in patent US20190336602A1, “STERILISATION OF S-NITROSOTHIOLS” (Salupont Consulting Ltd., priority 2015, published 2019).
Read-outs that look alike come from different tables or passages of the source.

Columns and labels:
[1] = gamma sterilisation of S-nitrosoglutathione at unconstrained temperature (Example 1), HPLC purity and impurities vs non-irradiated control; type: physicochemical
Procedure: S-nitrosoglutathione granule samples from a single manufacturing batch, contained in glass vials (up to 250 mg/vial), were stored before sterilisation surrounded by dry ice (solid CO2) at about −80° C. The matching controls were not irradiated but underwent similar conditions of storage and thermal management before, during and after irradiation, as compared with the S-nitrosoglutathione vials that were irradiated. The control purity levels of the S-nitrosoglutathione, and the level of specific impurities glutathione (GSH) and oxidised glutathione (GSSG) content and total impurities content, were analysed. Vials were exposed to either electron beam (e-beam) irradiations or to gamma irradiations. The vials were removed from the dry ice container and sterilised via two radiation dose conditions (15 kGy and 35 kGy) described below under higher temperature conditions (with surrounding air temperature in the range about 18 to 24° C. and with the temperature of the vials free to fluctuate to higher temperature). After irradiation, the vials were immediately surrounded by dry ice at about −80° C. and analysed for post-sterilisation determination of any changes in purity against the control. The gamma radiation was performed using a moving carrier system set up for delivering a 15 kGy dose and a 35 kGy dose. The 15 kGy dose radiation lasted about 8-10 hours and the temperature reached up to 40° C. The 35 kGy dose radiation lasted about 18-24 hours, with a temperature reaching up to 60° C. The radiation doses received were measured by conventional dosimeters.

[2] = e-beam sterilisation of S-nitrosoglutathione at unconstrained temperature (Example 1), HPLC purity and impurities vs non-irradiated control; type: physicochemical; conditions: ~27.5 °C
Procedure: S-nitrosoglutathione granule samples from a single manufacturing batch, contained in glass vials (up to 250 mg/vial), were stored before sterilisation surrounded by dry ice (solid CO2) at about −80° C. The matching controls were not irradiated but underwent similar conditions of storage and thermal management before, during and after irradiation, as compared with the S-nitrosoglutathione vials that were irradiated. The control purity levels of the S-nitrosoglutathione, and the level of specific impurities glutathione (GSH) and oxidised glutathione (GSSG) content and total impurities content, were analysed. Vials were exposed to either electron beam (e-beam) irradiations or to gamma irradiations. The vials were removed from the dry ice container and sterilised via two radiation dose conditions (15 kGy and 35 kGy) described below under higher temperature conditions (with surrounding air temperature in the range about 18 to 24° C. and with the temperature of the vials free to fluctuate to higher temperature). After irradiation, the vials were immediately surrounded by dry ice at about −80° C. and analysed for post-sterilisation determination of any changes in purity against the control. The e-beam radiation was performed using a moving carrier system set up for delivering a 15 kGy dose and a 35 kGy dose. The 15 kGy radiation dose lasted about 10-15 minutes and the temperature reached approximately equal to 27.5° C. (designated 27.5° C. in the Tables and Figs.). The 35 kGy radiation dose lasted about 30 minutes and the temperature reached approximately equal to 27.5° C. (designated ˜27.5° C. in the Tables and the Figs.). The radiation doses were measured by conventional dosimeters.

[3] = e-beam sterilisation of S-nitrosoglutathione at constrained temperatures (Example 2), HPLC purity and impurities vs non-irradiated control; type: physicochemical; conditions: few sec.
Procedure: The experimental protocol for this Example aims to test in a controlled manner the effects on purity of a sterilizing irradiation temperature (a) at about −80° C. and (b) under positive cooling (with surrounding air temperature in the range about 18 to 24° C. and with the temperature of the vials controlled). The same radiation doses as described for Example 1 were applied. For this Example, S-nitrosoglutathione granule samples, from the same single manufacturing batch as in Example 1, contained in amber glass vials (100 mg/vial) were stored before sterilisation at about −80° C. The irradiation process at −80° C. was achieved by the presence of dry ice, which was placed to ensure low temperature of the vials but without influencing the radiation dose delivery characteristics. The matching controls were not irradiated but underwent similar conditions of thermal management before, during and after irradiation, as compared with the S-nitrosoglutathione vials that were irradiated. The e-beam radiation was performed using a moving carrier system. The S-nitrosoglutathione vials were stored at −80° C. freezer and transferred to a dry ice container before irradiation. Before the start of irradiation the S-nitrosoglutathione vials destined for irradiation at ambient temperature (and control vials) were removed from the −80° C. freezer and transferred to a location where the surrounding air temperature is controlled at 18° C. Individual low-temperature containers were used for the vials designated for each target dose and condition of thermal management. A secondary packaging box was placed in the lateral centre at the bottom of the first low-temperature container, with the vials oriented upright. The position of each vial in the configuration was documented. The vials were always irradiated from the same side. […] The arrows marked “e” show the direction of the radiation. For the S-nitrosoglutathione vials requiring cold chain management, dry ice was placed at each lateral short side of the container to ensure a cold chain was maintained during the irradiation process. Each container was placed in an irradiation container. Both the 15 kGy e-beam and 35 kGy radiation doses lasted a few seconds. Following completion of the desired irradiation process, the irradiated S-nitrosoglutathione containing vials and correspondent controls were stored at −80° C. in a freezer for subsequent analysis.

[4] = liquid formulation, after at least 8-12 hours at 4 °C to 25 °C (Looker et al., 2008); cited from earlier work
[5] = gamma sterilisation of S-nitrosoglutathione at constrained temperatures (Example 2), HPLC purity and impurities vs non-irradiated control; type: physicochemical
Procedure: The experimental protocol for this Example aims to test in a controlled manner the effects on purity of a sterilizing irradiation temperature (a) at about −80° C. and (b) under positive cooling (with surrounding air temperature in the range about 18 to 24° C. and with the temperature of the vials controlled). The same radiation doses as described for Example 1 were applied. For this Example, S-nitrosoglutathione granule samples, from the same single manufacturing batch as in Example 1, contained in amber glass vials (100 mg/vial) were stored before sterilisation at about −80° C. The irradiation process at −80° C. was achieved by the presence of dry ice, which was placed to ensure low temperature of the vials but without influencing the radiation dose delivery characteristics. The matching controls were not irradiated but underwent similar conditions of thermal management before, during and after irradiation, as compared with the S-nitrosoglutathione vials that were irradiated. The gamma radiation was performed using gamma radiation emitted from cobalt-60 radioactive sources. The S-nitrosoglutathione vials were stored at −80° C. in a freezer and transferred to a dry ice container before irradiation. Before the start of irradiation, the S-nitrosoglutathione vials destined for irradiation at ambient temperature (and control vials) were removed from the −80° C. freezer and transferred to a location where the surrounding temperature was controlled at 18° C. Individual low-temperature containers were used for the samples designated for each target dose and condition of thermal management, as described above in relation to the e-beam arm of this Example. The secondary packaging was placed in the lateral centre at the bottom of first low-temperature container, with the vials oriented upright. […] The arrows marked “γ” show the direction of the radiation. For the S-nitrosoglutathione product requiring cold chain management, dry ice was placed at each lateral short side of the low-temperature container to ensure a cold chain was maintained during the irradiation process. Each low-temperature container was placed in the lateral centre of an irradiation container. The 15 kGy radiation dose lasted 2 hours and 8 minutes whereas the 35 kGy dose lasted about 5 hours and 8 minutes. When necessary, the dry ice was replenished before execution of the second irradiation. Following completion of the irradiation process, the irradiated S-nitrosoglutathione products were placed in the designated −80° C. freezer. The control samples were moved from the 18° C. controlled location to the designated −80° C. freezer upon completion of the second irradiation. The time of transfer was recorded.

[6] = cited from earlier work

## N[C@@H](CCC(=O)N[C@@H](CSN=O)C(=O)NCC(=O)O)C(=O)O [GSNO, S-nitrosoglutathione]
[1]; 15 kGy, 8-10 hours, <40 °C
  GSH impurity (% unit change): 0.34%
  GSNO purity (decrease % of control): −4.47%
  GSSH impurity (% unit change): 1.25%
  Total impurities (% unit changes): 4.25%
[1]; 35 kGy, 18-24 hours, <60 °C
  GSH impurity (% unit change): 0.15%
  GSNO purity (decrease % of control): −9.45%
  GSSH impurity (% unit change): 6.63%
  Total impurities (% unit changes): 9.12%
[2]; 15 kGy, 10-15 minutes
  GSH impurity (% unit change): 0.17%
  GSNO purity (decrease % of control): −0.55%
  GSSH impurity (% unit change): 0.11%
  Total impurities (% unit changes): 0.53%
[2]; 35 kGy, ~30 minutes
  GSH impurity (% unit change): 0.36%
  GSNO purity (decrease % of control): −1.37%
  GSSH impurity (% unit change): 0.32%
  Total impurities (% unit changes): 1.26%
[3]; 15 kGy, <27.5 °C
  GSH impurity (% unit change): 0.13%
  GSNO purity (decrease % of control): −0.28%
  GSSH impurity (% unit change): 0.13%
  Total impurities (% unit changes): 0.27%
[3]; 15 kGy, −80 °C
  GSH impurity (% unit change): 0.10%
  GSNO purity (decrease % of control): −0.16%
  GSSH impurity (% unit change): 0.10%
  Total impurities (% unit changes): 0.16%
[3]; 35 kGy, <27.5 °C
  GSH impurity (% unit change): 0.29%
  GSNO purity (decrease % of control): −1.12%
  GSSH impurity (% unit change): 0.23%
  Total impurities (% unit changes): 1.08%
[3]; 35 kGy, −80 °C
  GSH impurity (% unit change): 0.23%
  GSNO purity (decrease % of control): −0.55%
  GSSH impurity (% unit change): 0.07%
  Total impurities (% unit changes): 0.54%
[4]
  initial S-nitrosoglutathione present after storage: about 85%
[5]; 15 kGy, ~2 h, <27.5 °C
  GSH impurity (% unit change): 0.17%
  GSNO purity (decrease % of control): −0.67%
  GSSH impurity (% unit change): 0.14%
  Total impurities (% unit changes): 0.63%
[5]; 15 kGy, ~2 h, −80 °C
  GSH impurity (% unit change): 0.11%
  GSNO purity (decrease % of control): −0.26%
  GSSH impurity (% unit change): 0.11%
  Total impurities (% unit changes): 0.25%
[5]; 35 kGy, ~5 h, <32.5 °C
  GSH impurity (% unit change): 0.43%
  GSNO purity (decrease % of control): −2.2%
  GSSH impurity (% unit change): 0.36%
  Total impurities (% unit changes): 2.11%
[5]; 35 kGy, ~5 h, −80 °C
  GSH impurity (% unit change): 0.29%
  GSNO purity (decrease % of control): −1.01%
  GSSH impurity (% unit change): 0.36%
  Total impurities (% unit changes): 0.96%
[6]; solid prepared by a specific method, further controlled air, radiation and temperature conditions (Looker et al., 2008; WO 2008/153762)
  time reported to be stable on storage: 9 months
[6]; solid, inert atmosphere (argon and nitrogen), −20 °C, in the dark (Parent et al., 2013)
  time reported to be stable on storage: 6 months
